Reference: ChEMBL document CHEMBL4680277, “Targeting Metabolism of Extracellular Nucleotides via Inhibition of Ectonucleotidases CD73 and CD39” (J Med Chem, 2020)

Tests used:
[1] = Inhibition of human FLAG-tagged CD73 Thr376Ala mutant (1 to 552 residues) assessed as reduction in adenosine formation using AMP as substrate preincubated for 10 mins followed by substrate addition and measured after 30 mins by rapidfire mass spectrometry assay
[2] = molecular target: T1, Ectonucleoside triphosphate diphosphohydrolase 1 (Homo sapiens, UniProt P49961); experiment: Inhibition of human CD39 using ATP as substrate preincubated for 3 mins followed by substrate addition and measured after 10 to 15 mins by Malachite green reagent based assay
T1 sequence (P49961 whole entry): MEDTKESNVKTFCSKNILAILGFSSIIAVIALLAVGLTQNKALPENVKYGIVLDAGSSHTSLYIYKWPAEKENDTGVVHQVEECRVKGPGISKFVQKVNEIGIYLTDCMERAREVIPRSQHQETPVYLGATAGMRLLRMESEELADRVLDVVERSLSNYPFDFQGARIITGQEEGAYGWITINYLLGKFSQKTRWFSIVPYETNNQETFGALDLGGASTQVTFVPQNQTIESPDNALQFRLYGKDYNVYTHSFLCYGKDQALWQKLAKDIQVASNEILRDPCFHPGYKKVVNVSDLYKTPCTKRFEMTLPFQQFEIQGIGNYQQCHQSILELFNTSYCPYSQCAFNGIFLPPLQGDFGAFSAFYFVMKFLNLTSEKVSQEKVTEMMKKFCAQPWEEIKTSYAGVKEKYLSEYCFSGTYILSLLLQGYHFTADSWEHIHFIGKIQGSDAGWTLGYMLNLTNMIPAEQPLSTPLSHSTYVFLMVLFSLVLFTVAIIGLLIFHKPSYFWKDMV

[3] = molecular target: T1, Ectonucleoside triphosphate diphosphohydrolase 1; experiment: Inhibition of human CD39 using ATP as substrate preincubated for 3 mins followed by substrate addition and measured after 10 to 15 mins by Dixon and Cornish-Bowden plot analysis; conditions: read-out: Ki(app)
5'-nucleotidase [4] = molecular target: T2, 5'-nucleotidase (Homo sapiens, UniProt P21589); experiment: Inhibition of human C-terminal 6His-tagged CD73 (1 to 547 residues) expressed in HEK293F cells using 2 uM AMP as substrate by rapidfire mass spectrometry assay
Rattus norvegicus = organism: Rattus norvegicus; experiment: Inhibition of ecto-ATPase in Wistar rat cardiac synaptosomes assessed as reduction in ATP hydrolysis at 100 uM preincubated for 10 min followed by ATP addition and measured after 6 mins relative to control; type: subcellular; conditions: Heart, time 16.0 min
5'-nucleotidase [5] = molecular target: T2, 5'-nucleotidase; experiment: Inhibition of human C-terminal 6His-tagged CD73 ( Trp27 to Lys547 residues) expressed in CHO cells using CMP as substrate incubated for 20 mins by malachite Green assay
5'-nucleotidase [6] = molecular target: T2, 5'-nucleotidase; experiment: Inhibition of recombinant human CD73 using AMP as substrate incubated for 90 mins by malachite green colorimetric assay
5'-nucleotidase [7] = molecular target: T2, 5'-nucleotidase; experiment: Inhibition of human CD73 expressed in CHO cells using AMP as substrate preincubated for 10 mins followed by substrate addition and measured every minute for 10 to 20 mins by PNP coupled enzyme assay; type: cell-based
5'-nucleotidase [8] = molecular target: T3, 5'-nucleotidase (Rattus norvegicus, UniProt P21588); experiment: Inhibition of rat CD73 expressed in baculovirus infected insect cells using AMP substrate by capillary electrophoresis assay
T3 sequence (P21588 whole entry): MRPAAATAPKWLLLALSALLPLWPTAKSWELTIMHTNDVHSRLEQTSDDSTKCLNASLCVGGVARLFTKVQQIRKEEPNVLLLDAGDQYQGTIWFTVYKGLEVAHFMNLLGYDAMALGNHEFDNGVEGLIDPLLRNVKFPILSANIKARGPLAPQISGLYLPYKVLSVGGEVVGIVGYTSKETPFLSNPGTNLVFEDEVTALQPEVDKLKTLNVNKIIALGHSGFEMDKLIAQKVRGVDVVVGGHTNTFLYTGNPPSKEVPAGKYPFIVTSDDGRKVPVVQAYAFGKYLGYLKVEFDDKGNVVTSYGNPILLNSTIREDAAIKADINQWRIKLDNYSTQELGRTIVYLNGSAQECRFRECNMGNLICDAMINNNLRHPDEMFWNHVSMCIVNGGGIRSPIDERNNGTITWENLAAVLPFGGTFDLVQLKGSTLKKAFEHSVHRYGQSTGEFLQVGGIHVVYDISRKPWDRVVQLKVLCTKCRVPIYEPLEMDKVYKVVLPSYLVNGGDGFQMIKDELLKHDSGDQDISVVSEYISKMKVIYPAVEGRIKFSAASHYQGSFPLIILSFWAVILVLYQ

5'-nucleotidase [9] = molecular target: T2, 5'-nucleotidase; experiment: Inhibition of human C-terminal His6-tagged CD73 expressed in HEK293F cells using [15N]5-AMP as substrate preincubated for 1 hr followed by substrate addition and measured after 8 mins by MS/MS assay
5'-nucleotidase [10] = molecular target: T2, 5'-nucleotidase; experiment: Inhibition of recombinant human CD73 using AMP as substrate incubated for 120 mins by CellTiter-Glo assay
5'-nucleotidase [11] = molecular target: T2, 5'-nucleotidase; experiment: Inhibition of CD73 in human melanoma 1539 cells using AMP substrate by capillary electrophoresis assay; type: cell-based, NW1539
[12] = molecular target: T4, Ectonucleoside triphosphate diphosphohydrolase 1 (Rattus norvegicus, UniProt P97687); experiment: Inhibition of rat CD39 expressed in CHO cells using ATP as substrate incubated for 10 mins by UV absorbance method; type: cell-based
T4 sequence (P97687 whole entry): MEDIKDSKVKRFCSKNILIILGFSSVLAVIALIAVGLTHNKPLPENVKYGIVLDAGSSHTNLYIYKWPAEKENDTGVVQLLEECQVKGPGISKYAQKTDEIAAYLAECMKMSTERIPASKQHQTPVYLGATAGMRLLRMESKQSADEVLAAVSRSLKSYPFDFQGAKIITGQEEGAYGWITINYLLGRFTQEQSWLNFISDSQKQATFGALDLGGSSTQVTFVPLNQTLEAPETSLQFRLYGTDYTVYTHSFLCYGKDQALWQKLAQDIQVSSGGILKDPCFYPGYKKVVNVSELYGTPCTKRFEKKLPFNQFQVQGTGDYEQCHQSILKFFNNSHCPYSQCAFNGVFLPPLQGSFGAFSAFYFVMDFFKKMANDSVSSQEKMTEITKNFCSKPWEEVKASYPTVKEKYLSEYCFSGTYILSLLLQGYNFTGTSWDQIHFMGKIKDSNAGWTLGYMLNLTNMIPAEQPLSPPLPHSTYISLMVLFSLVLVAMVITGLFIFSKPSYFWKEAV

[13] = molecular target: T5, Ectonucleoside triphosphate diphosphohydrolase 2 (Rattus norvegicus, UniProt O35795); experiment: Inhibition of rat NTPDase2 expressed in CHO cells using ATP as substrate incubated for 10 mins by UV absorbance method; type: cell-based
T5 sequence (O35795 whole entry): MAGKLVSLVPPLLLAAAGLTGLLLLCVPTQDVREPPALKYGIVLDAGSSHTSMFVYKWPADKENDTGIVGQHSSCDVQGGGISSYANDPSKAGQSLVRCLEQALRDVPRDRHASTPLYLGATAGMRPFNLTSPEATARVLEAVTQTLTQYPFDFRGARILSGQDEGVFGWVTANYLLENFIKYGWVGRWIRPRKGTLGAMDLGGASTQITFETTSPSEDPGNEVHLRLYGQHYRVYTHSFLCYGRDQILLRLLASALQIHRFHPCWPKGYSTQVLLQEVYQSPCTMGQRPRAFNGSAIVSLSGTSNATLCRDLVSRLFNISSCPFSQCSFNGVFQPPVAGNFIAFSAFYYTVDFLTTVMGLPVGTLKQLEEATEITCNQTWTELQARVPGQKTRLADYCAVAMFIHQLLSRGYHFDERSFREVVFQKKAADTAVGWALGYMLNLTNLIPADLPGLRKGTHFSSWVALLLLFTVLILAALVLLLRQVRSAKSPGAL

[14] = Inhibition of rat NTPDase3 expressed in CHO cells using ATP as substrate incubated for 10 mins by UV absorbance method; type: cell-based
5'-nucleotidase [15] = molecular target: T2, 5'-nucleotidase; experiment: Inhibition of CD73 in human serum using 13C5-15N5-AMP as substrate preincubated for 60 mins followed by substrate addition and measured after 15 mins by LC/MS based assay; type: cell-free
[16] = Half-life in human at 25 mg, iv infusion dosed once every 2 weeks; type: ADME, organism-based; conditions: in vivo

T2 sequence (P21589 whole entry, the tested form may be a part): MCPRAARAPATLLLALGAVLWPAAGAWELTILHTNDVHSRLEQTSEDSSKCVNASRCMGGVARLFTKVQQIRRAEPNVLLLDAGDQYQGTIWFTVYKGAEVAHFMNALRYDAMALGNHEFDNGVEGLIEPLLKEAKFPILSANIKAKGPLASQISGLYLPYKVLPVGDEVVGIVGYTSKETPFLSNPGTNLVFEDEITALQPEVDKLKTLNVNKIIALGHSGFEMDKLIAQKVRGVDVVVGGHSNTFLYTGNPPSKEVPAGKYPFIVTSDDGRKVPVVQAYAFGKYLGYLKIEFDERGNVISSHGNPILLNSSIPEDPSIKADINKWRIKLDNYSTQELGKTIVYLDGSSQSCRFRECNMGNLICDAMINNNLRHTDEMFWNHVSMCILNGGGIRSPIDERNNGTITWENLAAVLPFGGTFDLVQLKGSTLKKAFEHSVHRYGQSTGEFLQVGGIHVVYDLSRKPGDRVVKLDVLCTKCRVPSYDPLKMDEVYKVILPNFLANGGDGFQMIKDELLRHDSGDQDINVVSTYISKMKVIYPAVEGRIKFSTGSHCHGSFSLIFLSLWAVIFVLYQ

| Compound | IC50 (5'-nucleotidase [4]) [µM] | other results |
| --- | --- | --- |
| O=S1(=O)NC(Nc2cccc3[nH]ncc23)=Nc2c1cc(Cl)c(F)c2O |  | IC50 [1]: 0.015 µM |
| CCCCSc1nc2c(N)ncnc2n1[C@@H]1O[C@H](COP(=O)(O)OP(=O)(O)O)[C@@H](O)[C@H]1O |  | IC50 [2]: 28 µM; Ki [3]: 0.9 µM |
| COc1nnc(-c2c[nH]c(=O)[nH]c2=O)cc1C1CCC(F)(F)C1 (stereo unspecified) | < 0.062 | IC50 (5'-nucleotidase [4]; hek293f): < 0.062 µM |
| N#Cc1nnc(-c2c[nH]c(=O)[nH]c2=O)cc1C1CCCC1 | < 0.062 |  |
| O=c1[nH]cc(-c2cc([C@H]3C[C@@H]3C(F)F)cnn2)c(=O)[nH]1 | < 0.062 |  |
| Cc1nnc(-c2c[nH]c(=O)[nH]c2=O)cc1[C@H]1C[C@@H]1CC(C)C | < 0.062 |  |
| N#Cc1nnc(-c2c[nH]c(=O)[nH]c2=O)cc1C1CC1 | < 0.062 |  |
| N#Cc1nnc(-c2c[nH]c(=O)[nH]c2=O)cc1[C@@H]1CC1(F)F | < 0.062 |  |
| O=c1[nH]cc(-c2cc([C@H]3CC3(F)F)c(Cl)nn2)c(=O)[nH]1 | < 0.062 |  |
| COc1nnc(-c2c[nH]c(=O)[nH]c2=O)cc1C1CC(C)(C)C1 | < 0.062 |  |
| Cc1cc(-c2ccc(/N=N/c3ccc4c(S(=O)(=O)O)cc(S(=O)(=O)O)c(N)c4c3O)c(C)c2)ccc1/N=N/c1ccc2c(S(=O)(=O)O)cc(S(=O)(=O)O)c(N)c2c1O |  | inhibition (Rattus norvegicus): 97.2% |
| Cc1nnc(-c2c[nH]c(=O)[nH]c2=O)cc1[C@H]1C[C@@H]1C(C)(F)F | < 0.062 |  |
| Cc1nnc(-c2c[nH]c(=O)[nH]c2=O)cc1[C@H]1C[C@@H]1CCF | < 0.062 |  |
| CCOC(=O)C(OC[C@H]1C[C@@H](n2nnc3c(NC[C@@H]4CCOC4)nc(Cl)nc32)[C@H](O)[C@@H]1O)P(=O)(O)O (stereo partly specified) |  | IC50 (5'-nucleotidase [5]): < 0.1 µM |
| O=c1[nH]cc(-c2cc(C3CC3)c(Cl)nn2)c(=O)[nH]1 | < 0.062 |  |
| CC1(C)CC(c2cc(-c3c[nH]c(=O)[nH]c3=O)nnc2Cl)C1 | < 0.062 |  |
| CC(C)[C@H]1C[C@@H]1c1cc(-c2c[nH]c(=O)[nH]c2=O)nnc1C#N | < 0.062 |  |
| COc1nnc(-c2c[nH]c(=O)[nH]c2=O)cc1C1CCCCC1 | < 0.062 |  |
| Nc1ncnc2c1ncn2[C@@H]1O[C@H](COP(=O)(O)CP(=O)(O)O)[C@@H](O)[C@H]1O [PHOSPHOMETHYLPHOSPHONIC ACID ADENOSYL ESTER] |  | IC50 (5'-nucleotidase [6]): 1.1 µM; IC50 (5'-nucleotidase [7]): 0.05 µM; Ki (5'-nucleotidase [8]): 0.87 µM; IC50 (5'-nucleotidase [9]): 0.06 µM; IC50 (5'-nucleotidase [10]): 2.5 µM; Ki (5'-nucleotidase [11]): 0.51 µM |
| O=c1[nH]cc(-c2cc(C3CC(F)(F)C3)c(Cl)nn2)c(=O)[nH]1 | < 0.062 |  |

| Compound | IC50 (5'-nucleotidase [4]) [µM] | other results |
| --- | --- | --- |
| C[C@@H](Nc1nc(Cl)nc2c1ncn2[C@@H]1O[C@H](CS(=O)(=O)CP(=O)(O)O)[C@@H](O)[C@H]1O)c1ccccc1 |  | IC50 (5'-nucleotidase [7]): < 0.01 µM |
| O=c1[nH]cc(-c2cc(C3CCC3)c(Cl)nn2)c(=O)[nH]1 | < 0.062 |  |
| O=c1[nH]cc(-c2cc([C@H]3C[C@@H]3C(F)F)c(Cl)nn2)c(=O)[nH]1 | < 0.062 |  |
| Nc1c(S(=O)(=O)O)cc(Nc2ccc(Nc3nc(Cl)nc(Nc4ccc(S(=O)(=O)O)c(S(=O)(=O)O)c4)n3)c(S(=O)(=O)O)c2)c2c1C(=O)c1ccccc1C2=O |  | Ki [12]: 20 µM; Ki [13]: 24.2 µM; Ki [14]: 1.1 µM |
| Cc1nnc(-c2c[nH]c(=O)[nH]c2=O)cc1[C@H]1C[C@@H]1C(F)F | < 0.062 | EC50 (5'-nucleotidase [15]): 0.051 µM |
| O=c1[nH]cc(-c2cc(C3CCCC3)c(Cl)nn2)c(=O)[nH]1 | < 0.062 |  |
| CC[C@H]1C[C@@H]1c1cc(-c2c[nH]c(=O)[nH]c2=O)nnc1C | < 0.062 |  |
| COc1nnc(-c2c[nH]c(=O)[nH]c2=O)cc1C1CC1 | < 0.062 |  |
| COc1nnc(-c2c[nH]c(=O)[nH]c2=O)cc1C1CCC1 | < 0.062 |  |
| N#Cc1nnc(-c2c[nH]c(=O)[nH]c2=O)cc1C1CCC1 | < 0.062 |  |
| CC(F)(F)[C@H]1C[C@@H]1c1cc(-c2c[nH]c(=O)[nH]c2=O)nnc1Cl | < 0.062 |  |
| C[C@H](Nc1cc(Cl)nc2c1cnn2[C@@H]1O[C@H](COP(=O)(O)CP(=O)(O)O)[C@@H](O)[C@H]1O)c1ccccc1F |  | half-life [16]: 74 h |
| CC(C)[C@H]1C[C@@H]1c1cc(-c2c[nH]c(=O)[nH]c2=O)nnc1Cl | < 0.062 |  |
| CC[C@H]1C[C@@H]1c1cc(-c2c[nH]c(=O)[nH]c2=O)nnc1C#N | < 0.062 |  |
| COc1nnc(-c2c[nH]c(=O)[nH]c2=O)cc1C1CC(F)(F)C1 | < 0.062 |  |
| N#Cc1nnc(-c2c[nH]c(=O)[nH]c2=O)cc1[C@H]1C[C@@H]1C(F)F | < 0.062 |  |
| NC(=O)c1cc2c(c(Cl)c1O)NCCOCCCCCc1cc(cc3[nH]ccc13)NS2(=O)=O |  | IC50 [1]: 0.004 µM |
| Nc1c(S(=O)(=O)O)cc(Nc2ccc(Cl)cc2)c2c1C(=O)c1ccccc1C2=O |  | Ki ([12]; cho): 15.7 µM; Ki ([13]; cho): 18 µM; Ki [14]: 16.4 µM |
| CCCCSc1nc2c(N)ncnc2n1[C@@H]1O[C@H](COP(=O)(O)O)[C@@H](O)[C@H]1O |  | IC50 [2]: 35 µM |
